Read-outs that look alike come from different tables or passages of the source.
Tests used:
p-Ser97 of FLAG-DYRK1A = test: p-Ser97 signal of FLAG-DYRK1A in HEK293 cells treated with phosphatase inhibitors; assay type: cell-based; details: HEK293, with doxycycline 8 h
Description: blotanalysisusing antibodies against p- Ser97 and FLAG. If Ser97 autophosphorylation were mediated by an intermolecular mechanism, then Ser97 of the kinase- dead K188R mutant would be phosphorylated when expressed in the presence of DD-FLAG-DYRK1A. However, in spite of the excess amount of DD- FLAG-DYRK1A, the phosphorylation of Ser97 in the kinase- dead mutant didnot increase compared toresults obtainedin the absence of DD- FLAG-DYRK1A.
Representative data from the triplicate experiments is shown.
(b) HEK293 cells harbouring the empty vector or the expression vector of DD -FLAG-DYRK1A with the bicistronic expression cassette of the kinase- dead FLAG- DYRK1A (K188R) and EGFP were incubated with Shield- 1 at the indicated concentrations for 16 h. After accumulation of DD- FLAG-DYRK1A, FLAG- DYRK1A (K188R) was expressed for 16 h in the presence of Shield- 1 and doxycycline. The kinase- dead FLAG- DYRK1A (K188R) didnot increase in the presence of DD- FLAG-DYRK1A, supporting the conclusion in (a).Representative data from the triplicate experiments is shown.
(c) p- Ser97 is susceptible to dephosphorylation in HEK293 cells. The HEK293 cells were treated with the indicated concentration of calyculin A, okadaic acid, and cantharidic acid in the presence of doxycycline for 8 h. The total cell lysates were subjected to immunoprecipitation using antibody against FLAG- tag. The immuno- precipitated FLAG- DYRK1A was detected using antibodies against p- Ser97 and FLAG- tag. […]
with cantharidic acid increased the p- Ser97 signal. In contrast, the treatment with calyculin A […]
which may indicate that calyculin A and okadaic acid inhibited dephosphorylation of other sites […]
phosphatases inhibited by these compounds have not been completely identified. Phosphatase(s) inhibited by cantharidic acid may play a role in dephosphorylation of p -Ser97 in the cells. […]
antibody- conjugated beads. […] Each protein was detected with the corresponding antibodies against p- Ser97 or FLAG. […]
(e) The band intensities in ( d) were quantified. […]

human DYRK2 = target: T1, human DYRK2 (Homo sapiens, UniProt Q92630); test: RI-in vitro kinase assay with DYRKtide; assay type: biochemical; details: DYRKtide substrate; Fig. 8b, n=4; read-out: IC50, kinase activity of recombinant DYRK2
T1 construct: His-tagged full-length human DYRK2 recombinant proteins; His; purchased Millipore

DYRK1A [1] = target: T2, DYRK1A (Homo sapiens, UniProt Q13627); test: SPHINKS assay: TAU (Thr212) phosphorylation by induced DYRK1A in HEK293 cells, western blot; assay type: cell-based; set-up: expressed in transfected cells; host or cells: Flp-In/T-REx HEK293
Procedure: TAU was expressed in a fused form with the destabilization domain FKBP12 (DD), which causes degradation of DD fusion proteins in the absence of a small molecule, Shield-1 (ref. [26]).
To distinguish kinase inhibition at the transitional state from that after maturation, we set up two types of time courses. […] Following additional incubation with Shield-1 for 2 h, total cell lysates were harvested, then subjected to western blot.
Cells were then cultured 24 h later in the presence of 1 μg ml^−1 of doxycycline (Nacalai Tesque) for 16 h, then treated with 1 μM of Shield-1 (Clontech, Takara Bio) for 2 h. Small molecules from our chemical library were diluted in 1 ml of DMEM and 1% FBS, then administered into the cells at a final concentration of 10 μM (0.1% DMSO), as illustrated in Fig. 1a. Total cell lysates were prepared with SDS-urea buffer (50 mM Tris-HCl, pH 7.0, 1% SDS, 4 M urea, 10% glycerol, 20 mM dithiothreitol, 0.5 mg ml^−1 BSA), then analysed with SDS–polyacrylamide gel electrophoresis (SDS–PAGE) followed by western blot analysis using antibodies against phospho-TAU (pT212) (1/3,000) and total TAU (1/3,000) proteins (Supplementary Fig. 14).
Category Parameter Description
Assay Type of assay Cell-based
Measurement Detection of TAU phosphorylation mediated by
Key reagents Rabbit polyclonal antibody against phosphorylated
Mouse monoclonal antibody against TAU (TAU-5)
ProteoTuner Shield System (Clontech Laboratories)
pcDNA5/FRT/TO vector and Flp-In/T-REx293 cells
Assay protocol Described in the sections "Methods" and "Results"
Library Library size Approximately 200
Library composition Synthetic chemical compounds, including derivatives
Source Laboratory of Chemical Bioscience, Institute of
Biomaterials and Bioengineering, Tokyo Medical and
Screen Format 6-well plates (FALCON) coated with polyethylenimine
Screen Concentration(s) tested 10 µM (0.1% DMSO) in DMEM with 1%FBS
Reagent/ compound dispensing system Manual
Detection instrument and software Western blot using primary anti-phospho- TAU and […]
Chemiluminescence of HRP was detected by the […]

[2] = target: T3, 3xFLAG-DYRK1A / CDC37-nanoKAZ (Homo sapiens, UniProt Q13627); set-up: expressed in transfected cells; host or cells: 293T cells stably expressing CDC37-nanoKAZ; method as in PMID 26234946; details: cited from earlier work
mature Drosophila DYRK2 = test system: mature Drosophila DYRK2; set-up: method as in PMID 17188038; details: cited from earlier work
[3] = test system: transitional intermediate of Drosophila DYRK2; set-up: method as in PMID 17188038; details: cited from earlier work
DYRK1A [4] = test: Rescue of Xenopus laevis embryos injected with DYRK1A mRNA; assay type: in vivo; details: 2.5 μM
Description: (§1) Uninjected embryos were used as controls. Development of the embryos was allowed to proceed to stage 40 in the dark. Representative images are shown. […] The results are the means±s.e.m. of triplicate experiments (n=55). (c) RT–PCR analysis of the neural marker genes in the head regions of the embryos at stage 25. Each of the marker genes indicates a specific region: NCAM for the pan-neural region, Brain Factor-1 (BF-1) for the forebrain, Pax-6 and Rx-1 for the eye, Otx-2 for the fore-midbrain, Engrailed-2 (En-2) for the mid-hindbrain and Krox-20 for the hindbrain. Ornithine decarboxylase (ODC) is an internal control.
(§2) DYRK1A and DYRK1B mRNA, which were synthesized from linearized vectors with the mMessage mMachine Kit (Life Technologies), were injected into two dorsal blastomeres at the eight-cell-stage for RT–PCR analysis and observation of the embryo phenotypes. […] The head regions of the injected embryos were dissected at the neural stage (stage 25) and the total RNA was isolated using TRIzol (Life Technologies). cDNA synthesis was carried out using Moloney murine leukaemia virus reverse transcriptase (Life Technologies). The sequences of the primer pairs were as follows[51][52]: NCAM, 5′-[…]-3′ and 5′-[…]-3′; Brain factor 1 (BF-1), 5′-[…]-3′ and 5′-[…]-3′; Pax-6, 5′-[…]-3′ and 5′-[…]-3′; Rx1, 5′-[…]-3′ and 5′-[…]-3′; Otx-2, 5′-[…]-3′ and 5′-[…]-3′; En-2, 5′-[…]-3′ and 5′-[…]-3′′; Krox-20, 5′-[…]-3′ and 5′-[…]-3′; ornithine decarboxylase (ODC), 5′-[…]-3′ and 5′-[…]-3′. No randomization was used, and no blinding was done.

DYRK1B = test: Rescue of Xenopus laevis embryos injected with DYRK1B mRNA; assay type: in vivo; details: 2.5 μM
Description: as §1, §2

[5] = target: T4, human DYRK1A kinase domain (Homo sapiens, UniProt Q13627); test: RI-in vitro kinase assay with DYRKtide; assay type: biochemical; details: for IC50: DYRKtide substrate
T4 construct: His-tagged human DYRK1A kinase domain (residues 127–485) was produced in E. coli; His; made in house; host or cells: E. coli
Procedure: (§3) The RI-in vitro kinase assay was performed as described previously, with some modifications. […] GST-tagged full-length human DYRK1B recombinant proteins and His-tagged full-length human DYRK2 recombinant proteins were obtained from Life Technologies and Millipore, respectively. The kinase reaction was performed in a reaction mixture containing serially diluted inhibitors, 10 mM MOPS-KOH (pH 7.0), 10 mM magnesium acetate, 200 μM EDTA, 1 μM ATP, 0.1–0.4 μCi [γ-^32P]ATP, 5 μM DYRKtide and 0.1–1 μg recombinant kinase, for a final volume of 25 μl. The final concentration of DMSO was adjusted to 1%, regardless of the inhibitor concentration. The reaction mixture was incubated at 30 °C for 10 min and phosphoric acid (final 5%) was then added to stop the reaction. We then dispensed 25 μl of the reaction mixture onto P81, a phosphocellulose membrane (Whatman, GE Healthcare), and washed four times in 5% phosphoric acid. Cherenkov light from the incorporated ^32P was measured using a liquid scintillation counter. The kinase assay conditions, including the incubation period and the concentration of the kinases and substrates, were optimized to maintain linearity during the incubation. The net radioactivity was determined by subtracting the background count from the reaction mixture without kinase, and the data were expressed as a percentage of the control sample containing the solvent.
The amount of incorporated ^32P was calculated from the standard line. The Km, Ki and Vmax values were calculated with Prism5 software (GraphPad Software) using the competitive inhibition model.

human DYRK1B = target: T5, human DYRK1B (Homo sapiens, UniProt Q9Y463); test: RI-in vitro kinase assay with DYRKtide; assay type: biochemical
T5 construct: GST-tagged full-length human DYRK1B recombinant proteins; GST; purchased Life Technologies
Procedure: as §3

FLAG-DYRK1A = target: T6, FLAG-DYRK1A (Homo sapiens, UniProt Q13627); test: 2A peptide bicistronic FLAG-DYRK1A/HA-EGFP expression in HEK293 cells, western blot; assay type: cell-based
T6 construct: F2A peptide (remnant left on the upstream protein after ribosome skipping) (C); expressed in transfected cells; host or cells: HEK293 (Flp-In/T-REx), vector stably integrated
Procedure: After incubation for 5 h, total cell lysates were subjected to SDS–PAGE followed by western blot analysis using the corresponding antibodies against FLAG, HA and GAPDH. Representative data from the pentaplicate experiments are shown. […] Representative data from the triplicate experiments are shown. […] Total cell lysates were subjected to SDS–PAGE followed by western blot analysis. Representative data from the triplicate experiments are shown.

DYRK1A [6] = target: T2, DYRK1A; details: PURExpress
Procedure: The PURExpress kit (New England Biolabs) was employed. DYRK1A was expressed at 37 °C for 40 min in a 12.5-μl reaction mixture containing 30 ng of pET28a(+)-FLAG-DYRK1A. […] For immunoprecipitation, 100 μl of PBS containing 0.5% Empigen BB, 0.5 mg ml^−1 BSA and 5 mM EDTA was added into the reaction mixture, then incubated with anti-FLAG (M2) beads at 4 °C for 6 h. The samples were prepared with an SDS-urea buffer, then analysed with SDS–PAGE followed by western blot (Supplementary Fig. 14). The band intensities were measured using the LAS-3000 (Fujifilm) and Multi Gauge software (Fujifilm).

DYRK1A [7] = target: T2, DYRK1A; details: DYRKtide, 100 μM ATP; up to 32 μM compound
Procedure: For the in vitro kinase assay, 0.5 μl of the reaction mixture was incubated in a total volume of 25 μl of AR buffer containing 0.1 mg ml^−1 of BSA, 100 μM of ATP, 50 μM of DYRKtide peptide (Anaspec) and the indicated concentrations of the small molecules for 2 h at 37 °C. The consumption of ATP was measured with ADP-Glo Kinase Assay kit (Promega Corporation).

[8] = target: T3, 3xFLAG-DYRK1A / CDC37-nanoKAZ; details: 24 h treatment; dose-dependent; 293T
Procedure: The wells were wash three times with ice-cold HENG buffer and then a luminescence assay was performed. […] The luminescence intensity was recorded at 0.1 s intervals for 10 s or 10 min. […] The relative amount of protein bound on the well was estimated from the absorbance.

[9] = target: GST-DYRK1A-TS Y319E mutant (Homo sapiens, UniProt Q13627, Y319E); test: biochemical; details: ATP 100 μM
Procedure: The cells were cultured with IPTG (final 1 mM) for 24 h at 6 °C, then lysed with GET buffer (20 mM HEPES-KOH, pH 8.0, 150 mM NaCl, 1 mM EDTA, 2 mM dithiothreitol, 10% glycerol, 0.5% Empigen BB, 0.5% Triton X-100). Clarified cell lysates were loaded onto a Strep-Tactin Sepharose column (IBA) and the bound proteins were then eluted with GET buffer containing 2.5 mM desthiobiotin (IBA) and 1 mg ml^−1 BSA. The eluates were subsequently applied to GST-Accept resin (Nacalai Tesque). The resin was washed extensively, first with GET buffer, then with AR buffer (5 mM MOPS, pH7.2, 2.5 mM β-glycerol-phosphate, 5 mM MgCl2, 1 mM EGTA, 0.4 mM EDTA, 2 mM tris(2-carboxyethyl)phosphine). […] We then added 5 μl of 2 mg ml^−1 BSA to the suspension (final concentration of 0.1 mg ml^−1), followed by incubation at 37 °C for 30 min. […] The bound proteins were eluted with SDS-urea buffer, then analysed with SDS–PAGE followed by western blot (Supplementary Fig. 14).
The band intensities were measured using the ChemiDoc MP Imaging System (Bio-Rad). In Fig. 6d,e, the relative activity of the phosphorylation was calculated from the ATP-dependent increase in the intensity of the p-Ser97 and p-Tyr signals by subtracting the band intensity in the absence of ATP from that in the presence of ATP.

GST-DYRK1A-TS WT = GST-DYRK1A-TS WT (Homo sapiens, UniProt Q13627); test: biochemical
Procedure: (§4) For the in vitro kinase assay, 2 μl (bed vol.) of the resin was incubated in a total volume of 25 μl of AR buffer containing 0.1 mg ml^−1 of BSA, 100 μM of ATP, 50 μM of DYRKtide peptide and the indicated concentrations of the small molecules, for 2 h at 37 °C. The consumption of ATP was measured with ADP-Glo Kinase Assay kit.

GST-DYRK1A-TS Y319E = GST-DYRK1A-TS Y319E (Homo sapiens, UniProt Q13627, Y319E); test: biochemical
Procedure: as §4

T1 sequence (Q92630 whole entry): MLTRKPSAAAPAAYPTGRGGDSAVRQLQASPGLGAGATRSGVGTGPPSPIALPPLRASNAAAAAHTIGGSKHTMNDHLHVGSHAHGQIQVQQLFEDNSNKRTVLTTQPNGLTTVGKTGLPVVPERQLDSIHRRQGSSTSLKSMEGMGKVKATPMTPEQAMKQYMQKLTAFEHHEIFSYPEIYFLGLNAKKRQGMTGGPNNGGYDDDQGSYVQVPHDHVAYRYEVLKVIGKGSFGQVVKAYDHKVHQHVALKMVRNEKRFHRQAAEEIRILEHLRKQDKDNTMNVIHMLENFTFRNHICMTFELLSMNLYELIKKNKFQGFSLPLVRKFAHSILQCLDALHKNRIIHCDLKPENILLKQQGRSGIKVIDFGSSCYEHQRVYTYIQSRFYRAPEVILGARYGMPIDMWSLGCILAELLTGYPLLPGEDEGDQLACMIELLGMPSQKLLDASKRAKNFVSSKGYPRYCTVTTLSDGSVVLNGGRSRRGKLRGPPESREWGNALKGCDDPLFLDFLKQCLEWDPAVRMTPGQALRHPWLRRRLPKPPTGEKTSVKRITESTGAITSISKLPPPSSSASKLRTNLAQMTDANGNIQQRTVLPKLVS
T5 sequence (Q9Y463 whole entry): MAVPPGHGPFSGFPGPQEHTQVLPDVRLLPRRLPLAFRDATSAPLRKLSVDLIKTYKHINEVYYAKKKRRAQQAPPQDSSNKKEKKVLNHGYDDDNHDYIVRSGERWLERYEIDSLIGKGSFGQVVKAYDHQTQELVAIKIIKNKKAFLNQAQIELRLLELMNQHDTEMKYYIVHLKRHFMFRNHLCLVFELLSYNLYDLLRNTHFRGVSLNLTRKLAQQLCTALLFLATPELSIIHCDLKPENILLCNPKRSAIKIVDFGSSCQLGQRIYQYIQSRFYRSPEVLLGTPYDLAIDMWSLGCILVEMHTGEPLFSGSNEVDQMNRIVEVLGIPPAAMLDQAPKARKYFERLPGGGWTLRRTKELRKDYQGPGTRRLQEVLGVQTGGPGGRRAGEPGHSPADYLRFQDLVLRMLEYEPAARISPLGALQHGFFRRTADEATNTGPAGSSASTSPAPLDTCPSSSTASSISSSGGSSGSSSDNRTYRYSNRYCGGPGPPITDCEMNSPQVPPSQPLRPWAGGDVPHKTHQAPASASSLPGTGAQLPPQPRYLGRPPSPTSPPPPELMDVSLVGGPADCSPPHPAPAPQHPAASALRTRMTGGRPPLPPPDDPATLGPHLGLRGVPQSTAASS

CC1(C(=O)O)C2CCC(O2)C1(C)C(=O)O (stereo not shown) [cantharidic acid]
p-Ser97 signal in FLAG-DYRK1A (p-Ser97 of FLAG-DYRK1A): increased

CCN1/C(=C/C(C)=O)Sc2ccc(O)cc21 [INDY]
IC50 (human DYRK2): 27.7 nM | TAU phosphorylation in Tc 2 (DYRK1A [1]; 10 μM, compound added after accumulation of mature DYRK1A, HEK293): suppressed | TAU phosphorylation in Tc 1 (DYRK1A [1]; 10 μM, compound added before doxycycline induction, HEK293): suppressed | interaction between DYRK1A and CDC37-nanoKAZ [2]: weakened

Brc1c(Br)c(Br)c2[nH]nnc2c1Br [TBB, 4,5,6,7-tetrabromo-1H-benzotriazole]
inhibition of the mature kinase (Drosophila DYRK2) (mature Drosophila DYRK2): inhibited by both

COC[C@@H]([C@H](O)[C@H](O)C(=O)NCC[C@H](C)c1nc(/C=C/C[C@@H]2O[C@]3(C[C@@H](O)[C@@H]2C)O[C@H]([C@H](C[C@H](O)[C@H](C)[C@H](O)[C@H](C)/C=C(C)/C(C)=C/C=C/C(C)=C\C#N)OC)[C@H](OP(=O)(O)O)C3(C)C)co1)N(C)C [calyculin A]
p-Ser97 signal in FLAG-DYRK1A (p-Ser97 of FLAG-DYRK1A): did not increase

CC(C)[C@H](CO)Nc1nc(Nc2cccc(Cl)c2)c2ncn(C(C)C)c2n1 [Purvalanol A]
inhibition of the transitional intermediate of Drosophila DYRK2 [3]: inhibited | inhibition of the mature kinase (Drosophila DYRK2) (mature Drosophila DYRK2): inhibited by both

C=C1[C@@H](O)[C@@H]2O[C@]3(CC[C@H](/C=C/[C@@H](C)[C@@H]4CC(C)=C[C@@]5(O[C@H](C[C@@](C)(O)C(=O)O)CC[C@H]5O)O4)O3)CC[C@H]2O[C@@H]1[C@@H](O)C[C@H](C)[C@H]1O[C@@]2(CCCCO2)CC[C@H]1C [okadaic acid]
p-Ser97 signal in FLAG-DYRK1A (p-Ser97 of FLAG-DYRK1A): did not increase

CCN1/C(=C/C(C)=O)Sc2ccc(OC(C)=O)cc21 [proINDY]
rescue of embryos injected with DYRK1A mRNA (small eyes) (DYRK1A [4]; Fig. 9b): almost completely rescued | expression of neural marker genes in DYRK1A-overexpressing embryos (DYRK1A [4]; RT-PCR, stage 25 head regions): increased | developmental malformation induced by DYRK1A (DYRK1A [4]; stage 40 tadpoles): repressed | tadpoles developed normally when injected with DYRK1B mRNA (DYRK1B; Fig. 9b): 89.1% | expression of neural marker genes in DYRK1B-overexpressing embryos (DYRK1B; RT-PCR, stage 25 head regions): increased | developmental malformation induced by DYRK1B (DYRK1B; stage 40 tadpoles): repressed

CCOc1cc(/C=C2\SC(=S)NC2=O)ccc1O [RD0392]
Ki [5]: 132 nM | IC50 ([5]; IC50, in vitro kinase activity of recombinant DYRK1A, Fig. 1f, n=4): 60.2 nM | IC50 ([5]; IC50, kinase activity of recombinant DYRK1A, Supplementary Fig. 13d, n=3): 25.6 nM | IC50 (human DYRK1B): 53.3 nM | IC50 (human DYRK2): 45.6 nM | amount of FLAG-DYRK1A (destabilization) (FLAG-DYRK1A): did not decrease | signal from phosphorylated tyrosine in in vitro translation (DYRK1A [6]): no significant effects | Ser97 autophosphorylation in in vitro translation (DYRK1A [6]; compound added prior to transcription): suppressed | substrate phosphorylation by DYRK1A produced in PURExpress (DYRK1A [7]): inhibited | interaction between DYRK1A and CDC37-nanoKAZ [8]: weakened | IC50 ([9]; IC50, Ser97 autophosphorylation): 205 nM | IC50 ([9]; IC50, tyrosine phosphorylation): 514 nM | IC50 (GST-DYRK1A-TS WT): 325 nM | IC50 (GST-DYRK1A-TS Y319E): 813 nM | TAU phosphorylation in HEK293 cells (DYRK1A [1]; Supplementary Fig. 2b): suppresses

Source: article PMC4844702, “Selective inhibition of the kinase DYRK1A by targeting its folding process” (Nature Communications, 2016)
